{"source": "patent US12441693B2", "about": "“Targeting STAT sumoylation to enhance immune responses” (THE GEORGE WASHINGTON UNIVERSITY, priority 2018, dated 2025)", "key": {"[1]": {"tested_on": "primary human CD4 T cells", "assay": "Viability of primary CD4 T cells in the screening", "format": "cell-based", "conditions": "at the concentration tested", "protocol": "It was observed that the ability of different benzotriazole and benzotriazin derivatives to increase STAT5 phosphorylation correlated with the ability of the compounds to induce the expression of CD69 (a STAT5 target gene) (FIG. 2A) but not CD25 (FIG. 2B) in the surface of human CD4 T cells. Based on these findings, a primary cell screening assay was set up according to FIG. 2C to identify derivatives with similar activity. As an example, flow cytometry was performed to isolated activated cells (FIG. 2D), which were expanded in the presence of DMSO or a compound of interest (FIG. 2E), and screened for changes in the expression of CD69 (FIG. 2F)."}, "NK cells": {"tested_on": "NK cells", "conditions": "single agent, 48 hours", "protocol": "To determine if STAT SUMOylation increases Gzm B expression in NK cells, isolated human NK cells were analyzed after a 3-day incubation with either IL-2, IL-15, HODHBt, IL-2+IL-15, HODHBt+IL-2, HODHBt+IL-15, or HODHBt+IL-2+IL-15.\nTo further characterize the effects of STAT SUMOylation inhibition in NK cell function, primary human NK cells were isolated and cultured with IL-15 in the presence or absence of HODHBt. 48 hours later, cells were phenotyped by flow cytometry.\nTo characterize the induction of other proteins known to be important for the cytolytic activity of NK cells, primary human NK cells were isolated from 6 male and 6 female donors and cultured with IL-15 in the presence or absence of HODHBt. 48 hours later, levels of Granzyme A (FIG. 18A), Perforin (FIG. 18B), Granulysin (FIG. 18C), TRAIL (FIG. 18D) and Fas ligand (FASL) (FIG. 18E) were analyzed by flow cytometry.\nAntibody-dependent cell-mediated cytotoxicity (ADCC) is mediated by the recognition of an antibody bound to a cell through an Fc receptor present in NK cells, mostly CD16 (FCGR3A). To address whether inhibiting STAT SUMOylation alters CD16 expression in the surface of NK cells, freshly isolated NK cells were treated with either IL-15, HODHBt or a combination of both for 48 hours and surface expression of CD16 was measured by flow cytometry.\nSince IL-15 activated STATs, it was hypothesized that STATs, and in particular STAT1, was controlling expression of CXCR5 (C—X—C Motif Chemokine Receptor 5) and that inhibiting STAT SUMOylation enhances CXCR5 expression and promotes migration towards a CXCL13 (C—X—C Motif Chemokine Ligand 13) gradient. CXCL13 controls homing of lymphocytes to follicles in lymph nodes; however whether this mechanism of regulation exists in human NK cells and whether IL-15 controls expression were unknown. To address which one of the two scenarios was potentially playing a role in the presence of NK cells within the follicles, human NK cells were treated with IL-15, HODHBt or a combination of both for 48 hours. Surface expression of CXCR5 and viability were next measured by flow cytometry.\nTo phenotype the cells, 1×10^5 cells were stained with a viability dye (Fixable Viability Dye eFluor 450, Affymetrix, eBioscience, San Diego, CA) and the surface marker-specific mAb specific for human: PE-anti-CD25 (Caltag, Burlingame, CA) and PE-anti-CD69 (Caltag, Burlingame, CA) followed by flow cytometric analysis in a BD FACScanto II flow cytometer using the FACSDiva software (Becton Dickinson, Mountain View, CA) and analyzed using FlowJo (Tree Star Inc., Ashland, OR)."}, "K562": {"tested_on": "K562", "assay": "NK cell killing of K562 cells, E:T 1:1, 4 hours", "format": "cell-based, human", "conditions": "NK cells pretreated with single agent, E:T 1:1, 4 hours", "protocol": "It was therefore hypothesized that inhibiting STAT SUMOylation may enhance the ability of IL-15 stimulated NK cells to clear the HIV latent reservoir. To test the hypothesis, NK cells were treated with DMSO, IL-15-stimulated, treated with HODHBt or IL-15-stimulated and treated with HODHBt. Cells were then tested in their ability to kill the erythroleukemia cell line K562, which lack MHC-I. In an experiment, the NK cells from two donors were co-cultured with K562 at an E:T ratio of 1:1 for 4 hours (FIG. 19A). NK cells were pretreated with IL-15, HODHBt, or a combination of both."}}}
{"compound": "CC(C)(C)OC(=O)NCc1ccc(C(=O)On2nnc3ccccc3c2=O)cc1", "note": "[BIN024]", "values": [{"measurement": "toxicity / viability of primary CD4 T cells", "setting": "[1]", "value": "high levels of toxicity"}]}
{"compound": "IL-15: interleukin-15 (IL-15), cytokine", "values": [{"measurement": "surface expression of CD69 on NK cells", "setting": "NK cells", "value": "induced the surface expression of CD69"}, {"measurement": "surface expression of CXCR5 on NK cells", "setting": "NK cells", "value": "induced surface expression of CXCR5"}, {"measurement": "expression of Granzyme A, Perforin, Granulysin, TRAIL and FASL in NK cells", "setting": "NK cells; 6 male and 6 female donors", "value": "induced the expression of all these genes"}, {"measurement": "expression of GZMB in NK cells", "setting": "NK cells; vs media control", "value": "increased the expression of GZMB"}, {"measurement": "killing of K562 by pretreated NK cells", "setting": "K562", "value": "induced increase killing of K562 over a 4-hour period"}]}
